# Assay results taken from ChEMBL document CHEMBL3046526, “-Glucosidase inhibitory and antioxidant properties and antidiabetic activity of Hypericum ascyron L” (Med Chem Res, 2011).
# How the values were obtained:
# [1] = tested on: Radical scavenging activity; experiment: Antioxidant activity assessed as inhibition of DPPH radical production at 54.05 ug/ml after 30 min by microplate assay; type: functional
# [2] = target: Lysosomal alpha-glucosidase (Rattus norvegicus) (UniProt Q6P7A9); experiment: Inhibition ofRattus norvegicus alpha-glucosidase isolated from intestine using PNPG as substrate at 0.03 uM incubated for 15 min prior to substrate addition measured after 15 min by spectrophotometric analysis
# Homo sapiens [3] = organism: Homo sapiens; experiment: Inhibition of alpha-glucosidase (unknown origin) using PNPG as substrate at 0.03 uM incubated for 15 min prior to substrate addition measured after 15 min by spectrophotometric analysis
# [4] = target: Lysosomal alpha-glucosidase (Rattus norvegicus) (UniProt Q6P7A9); experiment: Inhibition ofRattus norvegicus alpha-glucosidase isolated from intestine using PNPG as substrate at 0.02 uM incubated for 15 min prior to substrate addition measured after 15 min by spectrophotometric analysis
# [5] = Inhibition of alpha-glucosidase (unknown origin) using PNPG as substrate at 0.02 uM incubated for 15 min prior to substrate addition measured after 15 min by spectrophotometric analysis; settings: Homo sapiens
# [6] = Inhibition of alpha-glucosidase (unknown origin) using PNPG as substrate incubated for 15 min prior to substrate addition measured after 15 min by spectrophotometric analysis; design: species or system Homo sapiens
# Homo sapiens [7] = organism: Homo sapiens; experiment: Inhibition of alpha-glucosidase (unknown origin) using PNPG as substrate at 0.83 uM incubated for 15 min prior to substrate addition measured after 15 min by spectrophotometric analysis
# [8] = target: Lysosomal alpha-glucosidase (Rattus norvegicus) (UniProt Q6P7A9); settings: 0.83 uM
# Description: Inhibition ofRattus norvegicus alpha-glucosidase isolated from intestine using PNPG as substrate at 0.83 uM incubated for 15 min prior to substrate addition measured after 15 min by spectrophotometric analysis
# [9] = tested on: Radical scavenging activity; experiment: Antioxidant activity assessed as inhibition of DPPH radical production after 30 min by microplate assay; type: functional
# [10] = tested on: Radical scavenging activity; experiment: Antioxidant activity assessed as inhibition of DPPH radical production at 108.11 ug/ml after 30 min by microplate assay; type: functional
# [11] = tested on: Radical scavenging activity; experiment: Antioxidant activity assessed as inhibition of DPPH radical production at 10.81 ug/ml after 30 min by microplate assay; type: functional
# Chain of Lysosomal alpha-glucosidase (Rattus norvegicus) (Q6P7A9 whole entry): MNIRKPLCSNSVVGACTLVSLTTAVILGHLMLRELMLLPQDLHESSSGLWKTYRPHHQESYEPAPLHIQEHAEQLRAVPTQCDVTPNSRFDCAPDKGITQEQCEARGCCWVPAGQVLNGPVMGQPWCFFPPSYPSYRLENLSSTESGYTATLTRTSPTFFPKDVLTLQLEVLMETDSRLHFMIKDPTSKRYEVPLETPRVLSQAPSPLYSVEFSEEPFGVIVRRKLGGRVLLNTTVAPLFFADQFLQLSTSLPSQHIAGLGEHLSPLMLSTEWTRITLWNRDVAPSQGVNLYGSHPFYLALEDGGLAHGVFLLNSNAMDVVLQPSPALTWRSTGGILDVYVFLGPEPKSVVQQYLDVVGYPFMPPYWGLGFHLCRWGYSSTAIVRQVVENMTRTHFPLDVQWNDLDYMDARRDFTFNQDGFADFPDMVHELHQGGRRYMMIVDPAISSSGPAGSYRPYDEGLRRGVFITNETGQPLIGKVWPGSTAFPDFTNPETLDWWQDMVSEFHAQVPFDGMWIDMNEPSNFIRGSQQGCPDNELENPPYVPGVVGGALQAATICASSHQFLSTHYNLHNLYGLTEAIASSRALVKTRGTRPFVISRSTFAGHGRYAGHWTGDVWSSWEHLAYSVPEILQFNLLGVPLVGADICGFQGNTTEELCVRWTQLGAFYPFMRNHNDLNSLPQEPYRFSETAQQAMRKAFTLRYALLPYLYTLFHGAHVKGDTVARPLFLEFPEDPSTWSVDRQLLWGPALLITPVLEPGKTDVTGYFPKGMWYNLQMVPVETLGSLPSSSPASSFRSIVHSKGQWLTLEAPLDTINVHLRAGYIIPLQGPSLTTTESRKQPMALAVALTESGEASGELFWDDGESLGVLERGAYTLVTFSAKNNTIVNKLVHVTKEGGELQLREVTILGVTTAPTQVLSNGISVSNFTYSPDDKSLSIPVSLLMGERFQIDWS
inhibition [4],inhibition [5],IC50 [6],IC50 [9],SMILES,inhibition [1],further results
,,,,O=c1c(O)c(-c2ccc(O)c(O)c2)oc2c(O)ccc(O)c12,2.63%,inhibition [2]: < 50%; inhibition (Homo sapiens [3]): 14.3%
< 50%,18%,,,O=c1c(O[C@@H]2O[C@H](CO)[C@@H](O)[C@H](O)[C@H]2O)c(-c2ccc(O)cc2)oc2cc(O)cc(O)c12,1.96%,
,,895 µM,,C[C@H]1O[C@H](O[C@H]2[C@H](O)[C@@H](O)[C@@H](O[C@H]3[C@H](O)[C@@H](O)C(O)O[C@@H]3CO)O[C@@H]2CO)[C@H](O)[C@@H](O)[C@@H]1N[C@H]1C=C(CO)[C@@H](O)[C@H](O)[C@H]1O (some centres undefined) [ACARBOSE],,inhibition (Homo sapiens [7]): 68.4%; inhibition [8]: 55.2%
,,,40.8 µg/mL,Cc1cc(C(C)(C)C)c(O)c(C(C)(C)C)c1 [BUTYLATED HYDROXYTOLUENE],,inhibition [10]: 80.5%
< 50%,14.2%,,24.02 µg/mL,O=c1c(O[C@@H]2O[C@H](CO)[C@H](O)[C@H](O)[C@H]2O)c(-c2ccc(O)c(O)c2)oc2cc(O)cc(O)c12 [HYPEROSIDE],86.5%,
< 50%,14.4%,,24.02 µg/mL,O=c1c(O[C@@H]2O[C@H](CO)[C@@H](O)[C@H](O)[C@H]2O)c(-c2ccc(O)c(O)c2)oc2cc(O)cc(O)c12 [ISOQUERCETIN],86.1%,
,,61.8 µM,14.78 µg/mL,O=c1c(O)c(-c2ccc(O)cc2)oc2cc(O)cc(O)c12 [KAEMPFEROL],90.1%,inhibition [2]: 99.3%; inhibition (Homo sapiens [3]): 51.5%
,,,3.96 µg/mL,CCCOC(=O)c1cc(O)c(O)c(O)c1 [PROPYL GALLATE],,inhibition [11]: 89%
< 50%,99.7%,1.78 µM,,C[C@H]1[C@H](C)CC[C@]2(C(=O)O)CC[C@]3(C)C(=CC[C@@H]4[C@@]5(C)CC[C@H](O)C(C)(C)[C@@H]5CC[C@]43C)[C@H]12 [URSOLIC ACID],,
